# From ChEMBL document CHEMBL1122324, “New antihypertensive cannabinoids” (1983)
# Assays:
# Details in all cases: route oral
# Rattus norvegicus [1] = assay: percentage decrease in heart rate after 4 hr at a dose of 100 mg/kg administered perorally in rats; assay type: functional
# Rattus norvegicus [2] = assay: Percentage decrease in systolic blood pressure after 4 hr at 100 mg/kg administered perorally in rats; assay type: functional, Artery
# Rattus norvegicus [3] = assay: Percentage decrease in systolic blood pressure (heart rate) after 4 hr at 30 mg/kg administered perorally in rats; assay type: functional, Artery
# Rattus norvegicus [4] = assay: percentage decrease in heart rate after 24 hr at a dose of 30 mg/kg administered perorally in rats; assay type: functional
# Rattus norvegicus [5] = assay: percentage decrease in heart rate after 24 hr at a dose of 3 mg/kg administered perorally in rats; assay type: functional
# Rattus norvegicus [6] = assay: percentage decrease in heart rate after 4 hr at a dose of 10 mg/kg administered perorally in rats; assay type: functional
# Rattus norvegicus [7] = assay: percentage decrease in heart rate after 4 hr at a dose of 3 mg/kg administered perorally in rats; assay type: functional
# Rattus norvegicus [8] = assay: percentage decrease in heart rate after 6 hr at a dose of 10 mg/kg administered perorally in rats; assay type: functional
# Rattus norvegicus [9] = assay: percentage decrease in heart rate after 6 hr at a dose of 30 mg/kg administered perorally in rats; assay type: functional
# Rattus norvegicus [10] = assay: percentage decrease in heart rate after 6 hr at a dose of 3 mg/kg administered perorally in rats; assay type: functional
# Rattus norvegicus [11] = assay: percentage decrease in heart rate after 1 hr at a dose of 10 mg/kg administered perorally in rats; assay type: functional
# Rattus norvegicus [12] = assay: percentage decrease in heart rate after 1 hr at a dose of 30 mg/kg administered perorally in rats; assay type: functional
# Rattus norvegicus [13] = assay: percentage decrease in heart rate after 1 hr at a dose of 3 mg/kg administered perorally in rats; assay type: functional
# Rattus norvegicus [14] = assay: percentage decrease in heart rate after 24 hr at a dose of 10 mg/kg administered perorally in rats; assay type: functional
# Rattus norvegicus [15] = assay: Percentage decrease in systolic blood pressure after 6 hr at 3 mg/kg administered perorally in rats; assay type: functional, Artery
# Rattus norvegicus [16] = assay: Percentage decrease in systolic blood pressure after 6 hr at 30 mg/kg administered perorally in rats; assay type: functional, Artery
# Rattus norvegicus [17] = assay: Percentage decrease in systolic blood pressure after 1 hr at 30 mg/kg administered perorally in rats; assay type: functional, Artery
# Rattus norvegicus [18] = assay: Percentage decrease in systolic blood pressure after 1 hr at 10 mg/kg administered perorally in rats; assay type: functional, Artery
# Rattus norvegicus [19] = assay: Percentage decrease in systolic blood pressure after 1 hr at 3 mg/kg administered perorally in rats; assay type: functional, Artery
# Rattus norvegicus [20] = assay: Percentage decrease in systolic blood pressure after 24 hr at 10 mg/kg administered perorally in rats; assay type: functional, Artery
# Rattus norvegicus [21] = assay: Percentage decrease in systolic blood pressure after 24 hr at 3 mg/kg administered perorally in rats; assay type: functional, Artery
# Rattus norvegicus [22] = assay: Percentage decrease in systolic blood pressure after 4 hr at 10 mg/kg administered perorally in rats; assay type: functional, Artery
# Rattus norvegicus [23] = assay: Percentage decrease in systolic blood pressure after 24 hr at 30 mg/kg administered perorally in rats; assay type: functional, Artery
# Rattus norvegicus [24] = assay: Percentage decrease in systolic blood pressure after 4 hr at 30 mg/kg administered perorally in rats; assay type: functional, Artery
# Rattus norvegicus [25] = assay: Percentage decrease in systolic blood pressure after 6 hr at 10 mg/kg administered perorally in rats; assay type: functional, Artery
# Rattus norvegicus [26] = assay: Percentage decrease in systolic blood pressure after 4 hr at 3 mg/kg administered perorally in rats; assay type: functional, Artery
# Rattus norvegicus [27] = assay: percentage decrease in heart rate after 4 hr at a dose of 30 mg/kg administered perorally in rats; assay type: functional
structure (smiles),measurement,setting,value
CCCCCC(C)C(C)c1cc(O)c2c(c1)OC(C)(C)C1CCN(C(=O)CN)C=C21 (centres undefined),Heart rate,Rattus norvegicus [1],7%
same,Decrease in Systolic blood pressure,Rattus norvegicus [2],12%
CCCCCC(C)C(C)c1cc(OC(=O)COC(C)=O)c2c(c1)OC(C)(C)C1=C2CN(C(=O)COC(C)=O)CC1 (centres undefined),Decrease in Systolic blood pressure,Rattus norvegicus [3],10%
CCCCCC(C)C(C)c1cc(O)c2c(c1)OC(C)(C)C1CCN(C(=O)CO)CC21 (centres undefined),Heart rate,Rattus norvegicus [1],2%
same,Decrease in Systolic blood pressure,Rattus norvegicus [2],0%
CC(CCCc1ccc(F)cc1)c1cc(O)c2c(c1)OC(C)(C)C1=C2CN(C(=O)CCCO)CC1 (centres undefined),Heart rate,Rattus norvegicus [4],15%
same,Heart rate,Rattus norvegicus [5],-24%
same,Heart rate,Rattus norvegicus [1],20%
same,Heart rate,Rattus norvegicus [6],18%
same,Heart rate,Rattus norvegicus [7],0%
same,Heart rate,Rattus norvegicus [8],16%
same,Heart rate,Rattus norvegicus [9],9%
same,Heart rate,Rattus norvegicus [10],5%
same,Heart rate,Rattus norvegicus [11],3%
same,Heart rate,Rattus norvegicus [12],2%
same,Heart rate,Rattus norvegicus [13],-17%
same,Heart rate,Rattus norvegicus [14],6%
same,Decrease in Systolic blood pressure,Rattus norvegicus [15],9%
same,Decrease in Systolic blood pressure,Rattus norvegicus [16],12%
same,Decrease in Systolic blood pressure,Rattus norvegicus [17],11%
same,Decrease in Systolic blood pressure,Rattus norvegicus [18],11%
same,Decrease in Systolic blood pressure,Rattus norvegicus [19],-6%
same,Decrease in Systolic blood pressure,Rattus norvegicus [20],17%
same,Decrease in Systolic blood pressure,Rattus norvegicus [21],-8%
same,Decrease in Systolic blood pressure,Rattus norvegicus [22],28%
same,Decrease in Systolic blood pressure,Rattus norvegicus [23],22%
same,Decrease in Systolic blood pressure,Rattus norvegicus [24],26%
same,Decrease in Systolic blood pressure,Rattus norvegicus [25],19%
same,Decrease in Systolic blood pressure,Rattus norvegicus [26],5%
same,Decrease in Systolic blood pressure,Rattus norvegicus [2],32%
same,Heart rate,Rattus norvegicus [27],23%
CCCCCC(C)C(C)c1cc(O)c2c(c1)OC(C)(C)C1=C2CN(C(=O)CCO)CC1 (centres undefined),Heart rate,Rattus norvegicus [1],-1%
same,Decrease in Systolic blood pressure,Rattus norvegicus [2],6%
CCCCCC(C)C(C)c1cc(O)c2c(c1)OC(C)(C)C1CCN(C(=O)CN3CCCCC3)C=C21 (centres undefined),Heart rate,Rattus norvegicus [1],-8%
same,Decrease in Systolic blood pressure,Rattus norvegicus [2],10%
C#CCN1CCC2=C(C1)c1c(O)cc(C(C)C(C)CCCCC)cc1OC2(C)C (centres undefined),Decrease in Systolic blood pressure,Rattus norvegicus [20],27%
same,Decrease in Systolic blood pressure,Rattus norvegicus [21],4%
same,Decrease in Systolic blood pressure,Rattus norvegicus [22],23%
same,Decrease in Systolic blood pressure,Rattus norvegicus [26],7%
